Here are results for six compounds from US8710063B2, “Purine compounds used as CB2 agonists” (priority 2010, dated 2014).

One test has as its target T1, hCB2-Sf9 membranes (Homo sapiens, UniProt P34972).
T1 construct: expressed in transfected cells; host or cells: Sf9 insect cells
The test is described as follows: CB2 in vitro functional assay, SPA based GTP-γ-35S binding, agonist mode (antibody capture). The test is classed as biochemical. The following applies: normalized to methanandamide, read-out: relative EC50 value for CB2. How it is done:
(§1) CB1 and CB2 In Vitro Functional Assays
(§2) Exemplified compounds are tested in agonist mode using a SPA based GTP-γ-^35S binding assay. All assay components are prepared in assay buffer made up of 20 mM HEPES, 100 mM NaCl, 5 mM MgCl2, (pH 7.4 at room temperature). Semi-log compound dilutions are done in assay buffer containing BSA (final 0.125%). GTP-γ^35-S binding is measured in a 96 well format using a whole membrane capture technique for the CB1 assay and modifications of an antibody capture technique previously described (DeLapp et al. J Pharmacol Exp Ther 289:946-955, 1999) for the CB2 assay. All incubations are done at room temperature.
hCB2-Sf9 membranes and GDP (1 uM final) are added to assay buffer and homogenized. Diluted compounds and membranes are added to the assay plate and pre-incubated for 15 minutes. This is followed by addition of GTP-γ-^35S ([…] final) and another 35 minute incubation. Next a mixture containing Nonidet P40 detergent (0.2% final), anti-Gi antibody (final dilution of 1:362), and 1.25 mg anti-rabbit antibody scintillation proximity assay beads are added. The plates are then sealed, vortexed, and incubated for an additional 2 hours before centrifuging and counting as for CB1.
To analyze data, first subtract background from all wells. […]

The target in a further test is T2, hCB1-CHO membranes (Homo sapiens, UniProt P21554).
T2 construct: expressed in transfected cells; host or cells: CHO cells
Kind of test: CB1 in vitro functional assay, SPA based GTP-γ-35S binding, agonist mode (whole membrane capture). The test is classed as biochemical. The note with it: normalized to methanandamide, read-out: relative EC50 value for CB1. How it is done: as §1, §2
hCB1-CHO membranes, GDP (1 uM final), and saponin (10 ug/mL final) are added to assay buffer and homogenized. Diluted compounds, GTP-γ-^35S (500 nM final) and membranes are added to the assay plate and incubated for 30 minutes. Then 1 mg/well Wheatgerm Agglutinin SPA bead is added, and the plates are sealed, vortexed, and incubated for an additional hour. Plates are then centrifuged at 700×g for 10 minutes and counted for 1 minute per well using a scintillation counter.
To analyze data, first subtract background from all wells. Determine percent agonist efficacy by normalizing agonist/inverse agonist dose response data to a full agonist (methanandamide) response. Analyze the data using a 4-parameter logistic reduced fit with Activity Base and XLFit3.

A further test has as its system male Lewis rats. The test is described as follows: Monoiodoacetate (MIA) model, incapacitance testing. The note with it: dosed once, rat MIA model. The format is in vivo. How it is done: Monoiodoacetate (MIA) Model
For all studies male Lewis rats of approximately 8 weeks of age at the time of MIA injection are used to measure pain in the MIA model. The rats are housed in groups of 2 or 3 per cage and maintained in a constant temperature and on a 12 hour light/12 hour dark cycle. Animals have free access to food and water at all times except during data collection.
In the standard MIA model the right knees of each rat are injected with 0.3 mg MIA in 50 ul of saline and the left knees with 50 ul of saline. Pain is measured at varying times after MIA injection (not normally before 10 day post MIA injection) using incapacitance testing. This measures the difference in hind paw weight bearing between the MIA and saline injected knees, and each measurement is the average of 3 separate measurements each measured over 1 second.
For studies with CB2 agonists rats are randomized into dose groups (n=5 or 6) and then dosed once with the compound under investigation. Dosing is staggered by 15 minutes for each rat and at a predetermined time post-dose (usually 2 hours), pain measured using incapacitance testing. Studies are routinely run with 4 groups, vehicle (1% carboxy methyl cellulose in water plus 0.25% polysorbate 80) and 3 compound groups which can be either single compounds at a single dose or the same compound at 3 doses. Results are reported as the difference in weight bearing between saline and MIA injected knees and statistical comparisons are made between vehicle treated and compound treated animals to assess the effect of compounds on knee pain in the model.

In test [1] the test system is Male Harlan Sprague-Dawley rats. Kind of test: Animal model of dural plasma protein extravasation (PPE). The note with it: 10 mg/kg, 2 hours post po dose, rat; saline controls approximately 2.0, full prevention approximately 1.0. The test is classed as in vivo.
Another test concerns the target T3, human CB2 receptor (Homo sapiens, UniProt P34972).
T3 construct: expressed in transfected cells
Kind of test: Displacement of 3H-CP55940 from human CB2 receptors. The note with it: displacement of 3H-CP55940, human CB2 membrane homogenates. The test is classed as binding. How it is done: (§3) Displacement of 3H-CP55940 from Human and Rat CB2 Receptors
(§4) The methods of Felder et al. (Mol. Pharmaocol. 48:443-450, 1995) were utilized with minor modifications. Specifically, membrane homogenates from cells stably or transiently expressing the human or rat CB2 receptor were washed by centrifugation and diluted into a 50 mM Tris HCl (pH 7.4), 5 mM MgCl2, 2.5 mM EDTA, and 0.1% BSA buffer. Specific binding of 3H-CP55940 was defined with 1 μM CP55940. The ability of compounds to displace specific 3H-CP55940 binding was tested over a range of concentrations in the Tris, MgCl2, EDTA, BSA buffer in the presence of 1% dimethyl sulfoxide by incubating at room temperature for 90 minutes in a volume of 300 μl. Unifilter 96-well microplates pretreated with 0.5% polyvinylpyrrolidone, 0.1% polysorbate 20 in water were washed three times with cold Tris buffer. The reaction mixture was then transferred to the filter plate immediately before terminating the incubation by rapid filtration and three 200 μl washes with cold Tris buffer. After the filter plates dried, microscint 20 was added to each well, the plate sealed and counted for determination of disintegrations per minute. The displacement curves were graphed and the resulting Ki values determined utilizing Graphpad Prism.

For another test, the target named is T4, rat CB2 receptor (Rattus norvegicus, UniProt Q9QZN9).
T4 construct: expressed in transfected cells
T4 sequence (Q9QZN9 1-360): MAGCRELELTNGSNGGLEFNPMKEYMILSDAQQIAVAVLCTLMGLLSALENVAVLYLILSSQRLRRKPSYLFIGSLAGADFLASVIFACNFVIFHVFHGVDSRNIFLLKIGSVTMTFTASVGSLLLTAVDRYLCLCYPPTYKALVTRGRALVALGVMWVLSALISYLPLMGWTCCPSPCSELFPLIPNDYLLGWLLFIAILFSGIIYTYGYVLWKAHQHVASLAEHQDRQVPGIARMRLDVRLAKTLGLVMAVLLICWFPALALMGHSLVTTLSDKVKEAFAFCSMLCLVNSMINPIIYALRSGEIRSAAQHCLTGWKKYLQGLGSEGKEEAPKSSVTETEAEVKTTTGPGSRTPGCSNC
The test is described as follows: Displacement of 3H-CP55940 from rat CB2 receptors. The format is binding. The note with it: displacement of 3H-CP55940, rat CB2 membrane homogenates. The procedure: as §3, §4

Counter-ions that a name gives are not always drawn.

T2 sequence (P21554 whole entry): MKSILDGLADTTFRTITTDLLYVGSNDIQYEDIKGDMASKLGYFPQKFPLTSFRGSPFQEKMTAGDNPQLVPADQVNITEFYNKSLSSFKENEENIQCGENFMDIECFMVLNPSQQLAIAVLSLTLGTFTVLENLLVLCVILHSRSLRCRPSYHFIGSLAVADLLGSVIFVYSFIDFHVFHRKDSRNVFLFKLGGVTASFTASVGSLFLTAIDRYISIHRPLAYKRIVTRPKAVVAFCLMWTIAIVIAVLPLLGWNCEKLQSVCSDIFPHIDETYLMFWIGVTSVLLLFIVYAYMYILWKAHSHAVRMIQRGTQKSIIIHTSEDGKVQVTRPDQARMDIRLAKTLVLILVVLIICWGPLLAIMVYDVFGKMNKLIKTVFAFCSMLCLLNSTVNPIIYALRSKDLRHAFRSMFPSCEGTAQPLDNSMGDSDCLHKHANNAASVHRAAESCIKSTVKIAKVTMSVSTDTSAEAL
T3 sequence (P34972 whole entry): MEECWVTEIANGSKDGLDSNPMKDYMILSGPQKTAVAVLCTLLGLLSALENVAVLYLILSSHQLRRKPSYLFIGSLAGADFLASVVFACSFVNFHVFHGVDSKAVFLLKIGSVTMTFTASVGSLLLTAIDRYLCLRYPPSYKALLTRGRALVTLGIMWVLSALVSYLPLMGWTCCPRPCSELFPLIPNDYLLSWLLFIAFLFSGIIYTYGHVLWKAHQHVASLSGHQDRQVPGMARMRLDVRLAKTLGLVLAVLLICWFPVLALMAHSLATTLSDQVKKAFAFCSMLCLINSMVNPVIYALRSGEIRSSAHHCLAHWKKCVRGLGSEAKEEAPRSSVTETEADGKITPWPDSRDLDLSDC
T1 sequence (P34972 whole entry): as above

Take `COC(=O)NCCn1c(-c2ccccc2Cl)nc2c(N3CCN(CCF)CC3)nc(C)nc21` [Example 16, Methyl N-[2-[8-(2-chlorophenyl)-6-[4-(2-fluoroethyl)piperazin-1-yl]-2-methyl-purin-9-yl]ethyl]carbamate hydrochloride]: the EC50 was 13.5 nM at hCB2-Sf9 membranes and more than 100000 nM at hCB1-CHO membranes.

As for `CC(=O)NCCn1c(-c2ccccc2Cl)nc2c(N3CCN(CCF)CC3)nc(C)nc21.Cl` [Example 17, N-[2-[8-(2-chlorophenyl)-6-[4-(2-fluoroethyl)piperazin-1-yl]-2-methyl-purin-9-yl]ethyl]acetamide hydrochloride], the “pain versus vehicle (difference in hind paw weight bearing)” value with male Lewis rats (dose 0.1 mg/kg), in the test on male Lewis rats (dose 0.3 mg/kg) and in the test with male Lewis rats (dose 1 mg/kg) was “reduce pain versus vehicle” each time.

As for `Cc1nc(N2CCN(C)CC2)c2nc(-c3ccccc3Cl)n(CCS(C)(=O)=O)c2n1.Cl` [Example 1, 8-(2-Chlorophenyl)-6-(4-methylpiperazin-1-yl)-2-methyl-9-(2-methylsulfonylethyl)purine hydrochloride], the “pain versus vehicle (difference in hind paw weight bearing)” value in the test on male Lewis rats (dose 0.3 mg/kg) and in the test on male Lewis rats (dose 1 mg/kg) was “reduce pain versus vehicle” in each case. Moreover, the “extravasation ratio (stimulated side over unstimulated side of dura)” value in test [1] came out at 1.12.

For `Cc1nc(N2CCN(C)CC2)c2nc(-c3ccccc3Cl)n(CC#N)c2n1` [Example 3, 2-[8-(2-Chlorophenyl)-2-methyl-6-(4-methylpiperazin-1-yl)purin-9-yl]acetonitrile hydrochloride], the inhibitory constant (Ki) on human CB2 receptor was 27.8 nM; on rat CB2 receptor, 12.6 nM.

In the case of `CCN1CCN(c2nc(C)nc3c2nc(-c2ccccc2Cl)n3CCS(C)(=O)=O)CC1` [Example 2, 8-(2-Chlorophenyl)-6-(4-ethylpiperazin-1-yl)-2-methyl-9-(2-methylsulfonylethyl)purine hydrochloride], the half-maximal effective concentration (EC50) came out at 17.2 nM on hCB2-Sf9 membranes and 5560 nM at hCB1-CHO membranes. The inhibition constant Ki on human CB2 receptor worked out at 28.4 nM; at rat CB2 receptor, 48.7 nM.

For `CCN1CCN(c2nc(C)nc3c2nc(-c2ccccc2Cl)n3CCNC(C)=O)CC1.Cl` [Example 7, N-[2-[8-(2-Chlorophenyl)-6-(4-ethylpiperazin-1-yl)-2-methyl-purin-9-yl]ethyl]acetamide hydrochloride], in test [1], the “extravasation ratio (stimulated side over unstimulated side of dura)” value is reported as 1.18.
